Data taken from US20260014278A1, “HYBRID PEPTIDE DENDRIMER SYSTEMS AND EXTRAHEPATIC DELIVERY” (NUNTIUS THERAPEUTICS LIMITED, priority 2022, published 2026).

System: macrophage-polarised primary bone marrow derived monocytes
Test: eGFP mRNA transfection of macrophage-polarised primary mouse bone marrow derived monocytes, flow cytometry
Type: cell-based
Conditions: GSCG1,2-RHL NP=0.6:1, GSCG1,2-RL, 3-LR NP=0.16:1, GSCG1,RL, 2-LR NP=8:1, DOTMA:DOPE w/w 10:1, lipid-only DOTMA/DOPE w/w 3.2:1, FIG. 2
Procedure: BMDM cells were isolated using the StemCell Tech EasySep Mouse Monocyte Isolation Kit from mouse bone marrow cell suspension. The cells were resuspended in complete medium (DMEM+1% glutamax+10% heat inactivated FBS+1% Pen/Strep) enriched with 50 ng/ml murine M-CSF (1:1000 of 50 μg/ml stock) at 1E+6 cells/mi. 2 million cells (i.e. 2 mL) was seeded in each well of 6-well plate(s). The plate was incubated at 37° C. for 4 days. Half media exchange was performed using complete media enriched with […] murine M-CSF and 40 ng/ml murine IL-4. Cells were then harvested the next day (day 5) by washing cells with PBS and a 10 minute incubation with 5 mM EDTA (diluted in PBS) at 37° C. followed by plate tapping and resuspension. […]
Data were collected using a BD LSRFortessa I analyser running […] software (Beckton Dickinson). All collected data were analysed using FlowJo 10.0 software.
Transfection efficiency of macrophage-polarised primary bone marrow derived monocytes using various peptide dendrimer/lipid nanoparticles was assessed and compared to lipid-only nanoparticles (LPX-RNA). Each nanoparticle, with or without dendrimer, included eGFP mRNA to allow analysis of absolute numbers of cells transfected to be assessed by flow cytometry. […]

(RHL)4(KRHL)2KGSC-NH2 [GSCG1,2-RHL]
transfection efficiency: approximately 35%
